One test deals with T1, CD11b and CD14 (Homo sapiens, UniProt P08571).
T1 construct: endogenous in cells; host or cells: human monocytes in heparinised whole blood (healthy donors and patients)
T1 sequence (P08571 20-345 limits assumed): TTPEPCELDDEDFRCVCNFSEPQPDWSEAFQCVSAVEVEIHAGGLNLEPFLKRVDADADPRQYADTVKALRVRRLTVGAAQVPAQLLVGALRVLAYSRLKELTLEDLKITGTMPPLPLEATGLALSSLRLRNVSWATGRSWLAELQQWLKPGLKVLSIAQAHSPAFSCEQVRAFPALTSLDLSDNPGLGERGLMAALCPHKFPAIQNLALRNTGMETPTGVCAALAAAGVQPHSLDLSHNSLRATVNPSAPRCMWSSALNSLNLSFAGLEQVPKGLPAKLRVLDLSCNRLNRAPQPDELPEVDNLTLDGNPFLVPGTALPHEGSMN
As to the kind of experiment: FRET flow cytometry: co-assembly of CD11b and CD14 on monocytes. To be noted: for co-assembly of CD11b and CD14 (energy transfer between monoclonal antibodies): human monocytes in whole blood, stimulation with the substance alone, 37° C. 15 minutes. The test is classed as cell-based. As for the experimental part: (§1) Aliquots […] of whole blood were incubated with the following stimulatory compounds at 37° C. for 15 minutes: LPS of Salmonella minnesota (0.1-10 nM, Mw 10 kDa), ceramide (primarily stearic acid and nervonic acid) and sulfogalactosyl ceramide (SG-cer, […]), both of which tested LPS free in the LAL assay (Cer, 1 nM-5.5 mM), lysophosphatidyl choline (lyso-PC, 10 mM), phorbol-12-myristate-13-acetate (PMA, 1 mM), N-formyl-L-methionyl-L-leucyl-L-phenyl alamine (fMLP, 1 mM), PE, PC, PI and PS liposomes (10 mm) which had been prepared as described above. All reagents were obtained from Sigma. In addition, the cells were stimulated with HPS70 (7 nM), dHSP70 (7 nM) and SG-cer+dHSP70 (40 nM+7 nM). After incubation, the cells were washed with cold PBS containing 0.1% of NaN3. The synthetic LPS antagonist lipid IVa (“compound-406”, 1-400 ng/ml) and lipid A derived from E. coli (1-100 ng/ml) were made available by courtesy of Dr. S. Kusumoto. The cells were pre-incubated with the LPS antagonist at 37° C. for 15 minutes and then stimulated with LPS at the same temperature (without washing).
Whole blood cells which had been stimulated or washed ex vivo […] were incubated on ice for 15 minutes with saturation concentrations of monoclonal fluorochrom-conjugated or biotinylated antibodies. The monoclonal antibodies CD11a (clone 25.3.1), CD16a (clone 3G8). CD18 (clone 7E4), CD14 (clone RMO52), CD33 (clone My9-RD1). CD81 (clone Js64) were obtained as R-phyco-erythrine (R-PE) conjugates and CD25 (clone B1.49.9) in biotinylated form from Coulter/Immunotech (Krefeld, Germany). CD11b (clone d12), CD11c (clone S-HCL-3), CD36 (clone CB38), CD47 (clone B6H12), CD81 (clone JS-81) and (Cd55 (clone IA10) in biotinylated form and Streptavidin-R-PE were purchased from Becton/Dickinson/Pharningen (Heidelberg, Germany) CD18 (clone IB4) in biontinylated form and CD40 (clone EA-5) as R-PE conjugate were obtained from Alexis (Grünberg, Germany) and CD14 (clones ×8 and Uchml) and CD3 (clone Cris-7) in biotinylated form and Streptavidin-Cy5 (Sa-Cy5) from Dianova (Hamburg, Germany), CD32 (clone C1KM5) and CD64 (clone 10.1) were obtained as R-PE conjugates from Caltag (Burlingame, U.S.A.) and CD91 (clone 8G1) in biotinylated form from Proen (Heidelberg, Germany). A monoclonal anti-TLRA antibody (clone HTA125) was kindly provided by Dr. Kensuke. Since no energy transfer between the antibodies directed against the CD14/CD11a and CD14/CD11c pairs was detectable either on resting or on stimulated cells, these antibody combinations were not characterised further.
Lysis of erythrocytes and washing were carried out as described (Rothe et al., Thromb. Vasc. Biol. 16 (1996), 1437-1447). After the last washing step, the samples were divided and part of each sample incubated with a saturating amount of SA-Cy5 on ice for 15 minutes and washed before measuring.
For energy transfer experiments, […] aliquots of whole blood were treated with cholesterol/methyl cyclodextrine (C/C) (100 mg/ml/4.6 mg/ml) or 2-hydroxypropyl-β-cyclodextrine (0.15 mg/ml) at 37° C. for 30 minutes and then stimulated further with LPS (4 nM) or ceramide (40 nM) as described above. The energy transfer between CD14 and CD11b was measured.
A “FACSCalibur” flow cytometer (Becton Dickinson) equipped with an air-cooled 15 mW argon laser (excitation wavelength 488 nm), a diode laser (excitation wavelength […]) and standard filters [channel 1 (FITC): 530/30 nm band pass filter; channel 2 (R-PE being used as donor dye); 585/47 nm band pass filter; channel 3 (PerCP): pass having a length of >670 nm; and channel 4 (Cy5being used as recipient dye): 661/16 nm bad pass filter] was used. The Cellquest software (Becton Dickinson) was used for the measurements. […] Measurement was conducted without compensation. 50,000 leukocytes were required in the “list” modus, forward scattering (FSC) being used as a trigger signal. […]

In test [1] the target is T2, receptor cluster comprising CD14 (Homo sapiens, UniProt P08571).
T2 construct: endogenous in cells; host or cells: human monocytes in whole blood
T2 sequence (P08571 20-345 limits assumed): T1 sequence (P08571 20-345 limits assumed)
As to the kind of experiment: FRET with a series of antibody pairs: receptor cluster comprising CD14 on monocytes. It is filed as cell-based. To be noted: stimulation of the cells as control. The protocol:
as §1
Whole blood cells which had been stimulated or washed ex vivo […] were incubated on ice for 15 minutes with saturation concentrations of monoclonal fluorochrom-conjugated or biotinylated antibodies. The monoclonal antibodies CD11a (clone 25.3.1), CD16a (clone 3G8). […]

In another test the target is T3, human CD14 (Homo sapiens, UniProt P08571).
T3 construct: expressed in transfected cells; host or cells: CHO cells (control: pPol-DHFR vector)
T3 sequence (P08571 20-345): T1 sequence (P08571 20-345 limits assumed)
Put plainly: Binding of [14C]N-palmitoyl-D-sphingosine to CHO cells transfected with human CD14. The protocol:
d. CHO cells transfected with human CD14 (-unlabelled ceramide)(●)+unlabelled ceramide (∘)) or with a pPol-DHFR vector (-unlabelled ceramide (▪)+unlabelled ceramide (□)) were incubated with the specified concentrations of [^14C]N-palmitoyl-D-sphingosine and the ^14C bound to the cells determined. Each data point represents the mean value ± SD of three measurements.
Cells transfected with human CD14 or the pPol-DHFR vector were grown as described recently (Stelter et al., Eur. J. Biochem. 238 (1996), 457-464). The cells were trypsinated, washed twice with PBS and then taken up in PBS containing 10% of human serum. CHO cells (4×10^5) were pre-incubated on ice in the presence of a 50 fold excess of unlabelled N-palmitoyl-D-sphingosine (Sigma) for 15 minutes in a final volume of […]. After that [^14C]N-palmitoyl-D-sphingosine (American Radiolabeled Chemicals Inc., St. Louis, Mo., U.S.A.) was added and the cells incubated for another 15 minutes. In order to remove non-bound activity, the cells were washed twice and then transferred to a fresh Eppendorf vessel. After repeated washing, the pellet was dissolved in […] of 1% SDS, 10 mM EDTA and then added to 3 ml of scintillation liquid. The amount of cell-bound radioactivity was determined by measuring the scintillation of the liquid.

For the compound phosphatidyl serine [PS], the “co-assembly of CD11b and CD14 (energy transfer between monoclonal antibodies)” value (shortened to “co-assembly of CD11b and CD14”) at CD11b and CD14 was “Only lipoteichoic acid, PE and PI induced co-assembly”. lyso-phosphatidyl choline [lysoPC]: the “co-assembly of CD11b and CD14” value on CD11b and CD14 was “Only lipoteichoic acid, PE and PI induced co-assembly”.

On to `CCCCCCCCCCCCCC(=O)O[C@@H]1[C@@H](C)[C@@]2(O)[C@@H](C=C(CO)C[C@]3(O)C(=O)C(C)=C[C@@H]23)[C@@H]2C(C)(C)[C@]12OC(C)=O` [PMA, phorbol-12-myristate-13-acetate], for which the “energy transfer between any of the antibody pairs” value in test [1] is given as “did not result in any significant energy transfer”. In addition, on CD11b and CD14, the “co-assembly of CD11b and CD14” value is listed as “neither fMLP or PMA showed any effect”. For the compound phosphatidyl ethanol amine [PE], at CD11b and CD14, the “co-assembly of CD11b and CD14” value was “induced co-assembly between CD11b and CD14”. Regarding lipid A, the “co-assembly of CD11b and CD14” value at CD11b and CD14 is “induced the co-assembly of CD11b and CD14”. The same measure, in the same setting: to sulfogalactosyl ceramide [SG-cer] belongs “Only lipoteichoic acid, PE and PI induced co-assembly”. As to `CCCCCCCCCCCCC/C=C/[C@@H](O)[C@H](CO)N[14C](=O)CCCCCCCCCCCCCCC` [[^14C]-N-palnitoyl-D-sphingosine, [^14C]N-palmitoyl-D-sphingosine], the “inhibition of binding by 50-fold excess of unlabelled ligand” value at human CD14 (CD14-transfected CHO fibroblasts) is on record as “could be inhibited by adding a 50-fold excess of unlabelled ligand”. On human CD14 (cell-bound 14C, PBS with 10% human serum, on ice 15 minutes), the “binding to CD14-transfected CHO fibroblasts compared to vector-transfected cells” value is given as “much higher when compared to vector-transfected cells”. In the case of phosphatidyl inositol [PI], the “co-assembly of CD11b and CD14” value on CD11b and CD14 is “induced co-assembly between CD11b and CD14”. For the compound `CSCC[C@H](NC=O)C(=O)N[C@@H](CC(C)C)C(=O)N[C@@H](Cc1ccccc1)C(=O)O` [fMLP, N-formyl-L-methionyl-L-leucyl-L-phenyl alamine], in test [1], the “energy transfer between any of the antibody pairs” value was “did not result in any significant energy transfer”. On CD11b and CD14, the “co-assembly of CD11b and CD14” value is “neither fMLP or PMA showed any effect”. With phosphatidyl choline [PC], the “co-assembly of CD11b and CD14” value at CD11b and CD14 was “Only lipoteichoic acid, PE and PI induced co-assembly”. The same measure, in the same setting: with “dHSP70: HSP70 delipidated in ethanol/diethyl ether” the entry was “does not induce any receptor complex”. As for `CCCCCCCCCCC[C@@H](O)CC(=O)N[C@H]1[C@H](OC[C@H]2O[C@H](OP(=O)(O)O)[C@H](NC(=O)C[C@H](O)CCCCCCCCCCC)[C@@H](OC(=O)C[C@H](O)CCCCCCCCCCC)[C@@H]2O)O[C@H](CO)[C@@H](OP(=O)(O)O)[C@@H]1OC(=O)C[C@H](O)CCCCCCCCCCC` [compound-406], the “effect on LPS-induced co-association between CD14 and CD11b” value on CD11b and CD14 (antagonist given in vitro 15 minutes before stimulation, LPS 4 nM + c-406 400 ng/ml) is “reduced the LPS- or ceramide-induced co-association between CD14 and CD11b significantly”. Further, at CD11b and CD14 (antagonist given in vitro 15 minutes before stimulation, ceramide 10 nM + c-406 100 ng/ml), the “effect on ceramide-induced co-association between CD14 and CD11b” value was “reduced the LPS- or ceramide-induced co-association between CD14 and CD11b significantly”. Also, on CD11b and CD14, the “co-assembly of CD11b and CD14” value is “did not induce co-assembly of the receptors CD14 and CD11b”.

The values above are taken from patent publication US20030165919A1, “Method for the analysis of exogenic and endogenic cell activiation based on measuring the aggregation of receptors” (priority 2000, published 2003).
